Each block holds one compound with its values, some of them ahead of it.
Columns and labels:
MDS CD34+ progenitors = experiment: methylcellulose clonogenic assay, MDS CD34+ progenitors; format: cell-based, human; conditions: for erythroid (BFU-E) and myeloid (CFU-GM) colony formation in MDS CD34+ bone marrow cells: in vitro, methylcellulose
Protocol: MDS BM-derived CD34+ cells from 19 patients with MDS (Table 5) were cultured in methylcellulose in the presence and absence of increasing concentrations of compound 57. Results are expressed as means+/−SEM of 19 independent experiments.
(A) Total colony numbers of (A) Blast Forming unit-erythroid (BFU-E) and (B) Colony forming unit-Granulocytic Macrophage (CFU-GM) before (control) and after compound 57 treatment (100 nM) of 19 patients with MDS (Table 5).
(§1) All participants in the study signed informed consent, approved by the institutional review board of UT Southwestern and Dallas VA Medical Center. Hematopoietic progenitor colony formation was determined by clonogenic assays in methylcellulose, as detailed in previous studies. A total of 1×10^4 isolated CD34+ progenitor cells in 0.4 ml IMDM+2% FBS were resuspended in 4 ml MethoCult® (Stem Cell Technologies) and vortexed vigorously. The CD34+ cell:methylcellulose mixture was dispensed into 35 mm culture dishes (1×10^3 cells/35 mm plate) using sterile 3 cc syringe with attached sterile 16-gauge blunt-end needle. Cell cultures were incubated at 37° C., 5% CO2 in air and >95% humidity for 14-16 days. Granulocyte/macrophage colony-forming (CFU-GM) units and erythroid burst forming units (BFU-E) from different samples were scored on day 14 of culture.

IFNγ = experiment: induction of IFNγ by anti-CD3 antibody; format: cell-based; conditions: data not shown
p38β = p38β (Homo sapiens, UniProt Q15759); experiment: selectivity for p38α over p38β; format: biochemical
Protocol: (§2) The p38α MAPK inhibitor compound 57 was synthesized by Medicinal Chemistry (Scios, Inc., Fremont, Calif.). compound 57 has an IC50 of 9 nM for inhibition of p38α based on direct enzymatic assays, about 10-fold selectivity for p38α over p38β, and at least 2000-fold selectivity for p38α over a panel of 20 other kinases, including other MAPKs.

BMSC = experiment: cDNA microarray analysis of chemokines in TNFα- or IL-1β-stimulated BMSC; format: cell-based, human
From the text: Details of microarray and data analysis have been described previously. The data was normalized using the maNorm function in array package of Bioconductor version 1.5.8. Differential expression values were expressed as the ratio of the median of background-subtracted fluorescence intensity of the experimental RNA to the median of background-subtracted fluorescence intensity of the control RNA. The total BMSC RNA was extracted from cells using Qiagen's RNeasy kit (Valencia, Calif.). Arrays were probed in quadruplicate for a total of 16 hybridizations: control versus TNFα (24 hours), TNFα versus compound 57+TNFα (24 hours), control versus IL-1β (24 hours), IL-1β versus compound 57+IL-1β (24 hours).

IFNγ production = IFNγ production in IL-12 and IL-18-induced BMMNC, ELISA; format: cell-based; conditions: Homo sapiens, 24 hours, read-out: IC50 for block of IFNγ production
Protocol: BMMNC (1×10^6) from a normal healthy donor were stimulated with IL-12, IL-18 or both in the presence or absence of increasing concentrations of compound 57 for 24 h. IFN-γ concentration in cell supernatants was determined by ELISA. Figure represents Mean+/−SD of three independent experiments.
(§3) TNFα, IL-6, VEGF, and IFNγ concentrations of the cell culture supernatants were assayed using ELISA kits from BioSource International (Camarillo, Calif.). MCP-1, MMP-2 and MMP-9 concentrations were assayed using ELISA kits from R&D Systems.

normal CD34+ progenitors = experiment: methylcellulose clonogenic assay, cytokine-suppressed normal CD34+ progenitors; format: cell-based, human
Protocol: Primary bone marrow derived CD34+ cells were cultured in methylcellulose in the presence and absence of 20 ng/ml TNFα and with the indicated concentrations of compound 57 (nM). BFU-E and CFU-GM colonies were scored on Day 14. Results are expressed as means+/−S.E.M. of three independent experiments.
Primary bone marrow derived CD34+ cells were cultured in methylcellulose in the presence and absence of […] IFNγ and with the indicated concentrations of the p38α inhibitors (compound 57; nM) or compound 162. BFU-E and CFU-GM colonies were scored on Day 14. Results are expressed as means+/−S.E.M. of three independent experiments.
as §1, with “Cell cultures were incubated at 37° C., 5% CO2 in air and >95% humidity for 14-16 days.” left out

[1] = test system: TNFα secretion from BMMNC; experiment: basal and LPS-induced TNFα secretion from normal BMMNC, ELISA; format: cell-based; conditions: Homo sapiens, basal or LPS-induced normal BMMNC cultures, 24 h, read-out: IC50 for inhibition of TNFα secretion
Protocol: BMMNC (1×10^6) from a normal healthy donor were cultured in the absence and presence of increasing concentrations of compound 57 for 24 hours without or with 10 ng/ml LPS. TNFα concentration in cell supernatants were determined by ELISA. Figure represents Mean+/−SD of three independent experiments.
as §3

p38α = p38α (Homo sapiens, UniProt Q16539); experiment: direct enzymatic assay for inhibition of p38α; format: biochemical; conditions: direct enzymatic assays
Protocol: as §2

[2] = test system: LPS-induced TNFα secretion in whole human blood; experiment: cell based assay, LPS-induced TNFα secretion in whole human blood; conditions: read-out: IC50 for inhibition of LPS-induced TNFα secretion
Protocol: Other in vitro assays can assess the production of TNF-α as a correlation to p38 MAP kinase activity. One such example is a Human Whole Blood Assay. In this assay, venous blood is collected from, e.g., healthy male volunteers into a heparinized syringe and is used within 2 hours of collection. Test compounds are dissolved in 100% DMSO and 1 μl aliquots of drug concentrations ranging from 0 to 1 mM are dispensed into quadruplicate wells of a 24-well microtiter plate (Nunclon Delta SI, Applied Scientific Co., San Francisco, Calif.). Whole blood is added at a volume of 1 ml/well and the mixture is incubated for 15 minutes with constant shaking (Titer Plate Shaker, Lab-Line Instruments, Inc., Melrose Park, Ill.) at a humidified atmosphere of 5% CO2 at 37° C. Whole blood is cultured either undiluted or at a final dilution of 1:10 with RPMI 1640 (Gibco 31800+NaHCO3, Life Technologies, Rockville, Md. and Scios, Inc., Sunnyvale, Calif.). At the end of the incubation period, 10 μl of LPS (E. coli 0111:B4, Sigma Chemical Co., St. Louis, Mo.) is added to each well to a final concentration of 1 or 0.1 μg/ml for undiluted or 1:10 diluted whole blood, respectively. The incubation is continued for an additional 2 hours. The reaction is stopped by placing the microtiter plates in an ice bath, and plasma or cell-free supernates are collected by centrifugation at 3000 rpm for 10 minutes at 4° C. […]

[3] = microarray ratio IL-1β versus compound 57+IL-1β, 24 hours
[4] = microarray ratio TNFα versus compound 57+TNFα

Sequence of p38β (Q15759 whole entry): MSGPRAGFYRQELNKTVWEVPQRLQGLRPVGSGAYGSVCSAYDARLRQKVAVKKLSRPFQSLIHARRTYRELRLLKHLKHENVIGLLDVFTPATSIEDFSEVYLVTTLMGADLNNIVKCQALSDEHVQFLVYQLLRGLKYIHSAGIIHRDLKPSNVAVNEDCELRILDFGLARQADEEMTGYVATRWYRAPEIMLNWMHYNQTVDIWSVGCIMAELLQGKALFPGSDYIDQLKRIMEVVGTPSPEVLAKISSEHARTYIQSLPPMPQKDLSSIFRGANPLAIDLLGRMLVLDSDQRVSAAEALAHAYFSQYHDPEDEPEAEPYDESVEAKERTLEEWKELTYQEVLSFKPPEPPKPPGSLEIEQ
Sequence of p38α (Q16539 whole entry): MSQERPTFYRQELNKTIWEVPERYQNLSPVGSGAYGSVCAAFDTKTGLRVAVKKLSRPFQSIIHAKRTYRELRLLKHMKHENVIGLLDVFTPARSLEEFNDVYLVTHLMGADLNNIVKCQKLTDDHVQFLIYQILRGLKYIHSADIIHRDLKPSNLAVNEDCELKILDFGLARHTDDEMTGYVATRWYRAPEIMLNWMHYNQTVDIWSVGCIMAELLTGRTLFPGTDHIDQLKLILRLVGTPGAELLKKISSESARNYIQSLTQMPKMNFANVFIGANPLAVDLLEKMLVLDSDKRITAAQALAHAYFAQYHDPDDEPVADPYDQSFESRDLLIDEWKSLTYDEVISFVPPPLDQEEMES

Structure (SMILES): COc1cccc(-c2cc(=O)c3ccccc3o2)c1N [PD 98059]
- erythroid (BFU-E) and myeloid (CFU-GM) colony formation in MDS CD34+ bone marrow cells (MDS CD34+ progenitors): not observed

Structure (SMILES): CCc1nc(-c2ccc(OC)cc2)[nH]c1-c1ccncc1 [SB 202474]
- erythroid (BFU-E) and myeloid (CFU-GM) colony formation in MDS CD34+ bone marrow cells (MDS CD34+ progenitors): not observed

- selectivity for p38α over p38β (p38β): about 10 fold
- IC50 (IFNγ production): < 0.05 µM
- IC50 (p38α): 0.009 µM
- IC50 [2]: 1.3 µM
Structure (SMILES): COc1cc2c(cc1C(=O)N1C[C@H](C)N(Cc3ccc(F)cc3)C[C@H]1C)c(C(=O)C(=O)N(C)C)cn2C [compound 57]
- induction of IFNγ by anti-CD3 antibody (IFNγ): not inhibited
- increase in myeloid and erythroid colony numbers in MDS progenitors (MDS CD34+ progenitors; 20 nM-100 nM compound): 2-3 fold
- CCL2 (MCP-1) differential expression, C57 + IL-1β (BMSC; [3]): −1.4
- CCL7 (MCP3) differential expression, C57 + IL-1β (BMSC; [3]): −1.5
- CXCL1 (GROα) differential expression, C57 + IL-1β (BMSC; [3]): −1.6
- CXCL3 (GROγ) differential expression, C57 + IL-1β (BMSC; [3]): 1.3
- CXCL6 (GCP2) differential expression, C57 + IL-1β (BMSC; [3]): −1.6
- CXCL10 (IP10) differential expression, C57 + IL-1β (BMSC; [3]): 1.0
- CXCL11 (ITAC) differential expression, C57 + IL-1β (BMSC; [3]): 0.0
- CXCL16 (SR-PSOX) differential expression, C57 + IL-1β (BMSC; [3]): −4.2
- CCL2 (MCP-1) differential expression, C57 + TNFα (24 h) (BMSC; [4]): −1.7
- CCL7 (MCP3) differential expression, C57 + TNFα (24 h) (BMSC; [4]): −2.2
- CXCL1 (GROα) differential expression, C57 + TNFα (24 h) (BMSC; [4]): −2.9
- CXCL3 (GROγ) differential expression, C57 + TNFα (24 h) (BMSC; [4]): −1.6
- CXCL6 (GCP2) differential expression, C57 + TNFα (24 h) (BMSC; [4]): −5.3
- CXCL10 (IP10) differential expression, C57 + TNFα (24 h) (BMSC; [4]): −2.9
- CXCL11 (ITAC) differential expression, C57 + TNFα (24 h) (BMSC; [4]): −1.4
- CXCL16 (SR-PSOX) differential expression, C57 + TNFα (24 h) (BMSC; [4]): 1.4
- increase in both BFU-E and CFU-GM colony numbers compared to those without compound (normal CD34+ progenitors; TNFα-treated CD34+ progenitors, 50 nM compound): about 100%
- IC50 [1]: 0.05 µM

Structure (SMILES): CN(C)C(=O)C(=O)c1c[nH]c2cc(Cl)c(C(=O)N3CCC(Cc4ccc(F)cc4)CC3)cc12 [compound 162]
- IFNγ-induced suppression of erythroid and myeloid colony formation (normal CD34+ progenitors; normal CD34+ progenitors, IFNγ, day 14): reverses

Reference: US20060258582A1, “Method of treating myelodysplastic syndromes” (Scios, Inc., priority 2004, published 2006)
